Experiment: physchem
Conditions: pH 7.6, aqueous with cosolvent or surfactant or cyclodextrin, kinetic from dmso stock

solubility: ≤ 50 µM
SMILES: COc1ccccc1N1CCN(C(=O)c2ccc3c(c2)NC(=O)C(CSCc2ccccc2C)N3)CC1 (stereo not shown) [Compound 4]

Reference: article PMC4090677 (Frontiers in Immunology, 2014)
